Laboratory results published in publication PMC3158281 (Nature chemical biology, 2011).
Square brackets hold non-standard residues; d marks the D form. Ends that are not written are not given here. * marks the point of attachment. FITC = O=C1OC2(c3ccc(O)cc3Oc3cc(O)ccc32)c2ccc(NC(=S)*)cc21; Pmab = not defined here; PEG = not defined here

Key:
[1] = tested on: HeLa cells; assay: Mitotic arrest and apoptotic cell death in cultured HeLa cells; assay type: cell-based, human; details: 100 nM
[2] = target: T1, peptide 9 (synthetic construct, not fully specified (residue 3); reading uncertain); assay: fluorescence polarization
T1 chain: {FITC-PEG}-PLHS[Pmab]

For CC[C@@H]1C(=O)N(C)c2cnc(Nc3ccc(C(=O)NC4CCN(C)CC4)cc3OC)nc2N1C1CCCC1 [BI 2536], the “induction of mitotic arrest and apoptotic cell death” value [1] was “induced a greatly delayed, but pronounced mitotic arrest and apoptotic cell death”.

B1: Plk3 PBD PBD (protein)
chain: WVSKWVDYSNKFGFGYQLSSRRVAVLFNDGTHMALSANRKTVHYNPTSTKHFSFSVGAVPRALQPQLGILRYFASYMEQHLMKGGDLPSVEEVEVPAPPLLLQWVKTDQALLMLFSDGTVQVNFYGDHTKLILSGWEPLLVTFVARNRSACTYLASHLRQLGCSPDLRQRLRYALRLLRDRSP
In the case of B1, the Kd [2] is reported as 460 nM.
